The subject of one experiment is A375. Kind of experiment: MTT antiproliferative/cytotoxicity assay, A375. The experiment is classed as cell-based, human. Conditions: Homo sapiens, A-375, 48 h, melanoma, MTT, 48 h; read-out: IC50 A375. An outline of the steps: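 Cells at 65–75% confluence treated with 0–40 µM compound (diluted in growth medium from 10 mM DMSO stocks) in sext- to octuplicate for 48 h; viability by MTT. A375 and HaCaT in DMEM with 10% and 5% FBS respectively; SK-MEL-28 in RPMI-1640 with 5% FBS; 37 °C, 5% CO2.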

The subject of experiment [1] is A431. The experiment can be described thus: Immunoblotting of apoptosis markers, A431. Type of experiment: cell-based, human. As to conditions: western blot, 48 h, vs untreated. As to the method: Immunoblotting was performed according to standard procedures of the Bio-Rad electrophoresis system (Bio-Rad, Hercules, CA) as described earlier. Briefly, protein extracts were obtained by lysing cells in RIPA buffer containing protease inhibitors, and were resolved by 4–12% polyacrylamide ready mini-PROTEAN TGX gel electrophoresis with sodium dodecyl sulphate (SDS) running buffer. Gels were electrotransferred to 0.45 μm nitrocellulose membranes (Bio-Rad, Hercules, CA) in Tris-glycine (TG) buffer using a Trans-Blot Turbo Transfer Pack according to manufacturer’s instructions. Membranes were incubated for 1 h in 5–7% non-fat powdered milk dissolved in TBST (Tris-buffered saline containing 0.05% Tween 20) or 5% BSA for phosphorylated proteins, to saturate nonspecific binding sites, followed by an overnight incubation (4 °C) with primary antibodies. Membranes were washed 5× with TBST and treated with suitable HRP-conjugated secondary antibodies (Amersham Life Science Inc., Arlington Height, IL) for another 2 h at room temperature, followed by additional wash steps and chemiluminescence-based detection with the Amersham ECL Prime detection reagent kit and the Bio-Rad Quantity One ChemiDoc™ detection and imaging analysis software systems as described earlier[108]^,[109].

Experiment [2] deals with A431. Kind of experiment: Colony formation assay, A431. Type of experiment: cell-based, human. As to conditions: 0, ½IC50, IC50, 1½IC50; 14 days; vs untreated control. As to the method:
(§1) Cells were then trypsinised, and 1000 viable cells from each treated group were seeded on […] in 10 mL of the medium, and incubated for an additional 14 days before fixation and crystal violet staining, imaging, and colonies assessment as previously described[109]^,[116]. The plates were scanned, and the area of clones was quantified with the free software Image J (Bethesda, MD) (https://imagej.nih.gov/ij/).

The test system of a further experiment is SK-MEL-28. The experiment can be described thus: Colony formation assay, SK-MEL-28. The experiment is classed as cell-based, human. As to conditions: 0, ½IC50, IC50, 1½IC50; 14 days; vs untreated control. How it is done: as §1
Experiment [3] in a line: DPPH free radical scavenging assay.
For the next experiment, the system named is GFP-A431. The experiment can be described thus: MTT antiproliferative/cytotoxicity assay, A431. The experiment is classed as cell-based, human. As to conditions: Homo sapiens, A-431, 48 h, non-melanoma, MTT, 48 h; read-out: IC50 GFP-A431.

As for `O=C1CC(c2ccccc2)=NN1c1ccc(Br)cc1` [P25], the IC50 in the experiment with A375 worked out at 14.3 ± 0.9 µM; in experiment [3] (N.A. = No Activity, > 1000 = not biologically relevant, read-out: IC50 Value, DPPH antioxidant activity (Table S4)) it was 190 µM; in the experiment on GFP-A431, 3.7 ± 0.5 µM. Besides, the “activated caspase-3, caspase-9 and cleaved PARP levels, A431” value in the experiment with A431 [1] (concentration-dependent) was “substantially increased levels”. The “anti-apoptotic Bcl-2 protein levels, A431” value with A431 [1] was “corresponding decreases”. The “pro-apoptotic Bax expression, A431” value in the experiment on A431 [1] is listed as “dose-dependent amplified expression”. The “colony formation, A431” value with A431 [2] is listed as “significant concentration-dependent reductions in the relative percentage of colonies formed”. For the same compound, the “colony formation, SK-MEL-28” value in the experiment on SK-MEL-28 is reported as “significant concentration-dependent reductions in the relative percentage of colonies formed”. Moreover, the “Percent Scavenging (DPPH)” value in experiment [3] (1 mM) came out at 77.30%.

These data come from paper PMC10187093, “Synthesis, in silico modelling, and in vitro biological evaluation of substituted pyrazole derivatives as potential anti-skin cancer, anti-tyrosinase, and antioxidant agents” (Journal of Enzyme Inhibition and Medicinal Chemistry, 2023).
